Measured values published in patent US8507460B2, “Substituted 3′,5′-cyclic phosphates of purine nucleotide compounds and pharmaceutical compositions for the treatment of viral infections” (priority 2011, dated 2013).

What was measured:
fresh human hepatocytes = assay: Release of active metabolite in fresh human hepatocytes; format: in vitro ADME; settings: 10 μM, 6 hr
Experimental: Plates of fresh human and mouse hepatocytes were obtained on ice. The medium was removed and replaced with hepatocyte culture medium (William's E supplemented with penicillin-streptomycin, 1% L-glutamine, 1% insulin-transferrin-selenium and 0.1 μM Dexamethasone (Invitrogen) or with Invitro GRO HI medium complemented with Torpedo antibiotics (Celsis)). Cells were left overnight in an incubator at 37° C. to acclimatize to culture and the medium.
Hepatocyte incubations were conducted at a final volume of 0.5 mL hepatocyte culture medium/well (0.8 million cells/well for human and 0.5 million cells/well for mouse; 12 well plate no overlay, collagen coat). Culture medium from overnight incubation of cells was removed and replaced with fresh medium, pre-warmed to 37° C., containing 10 μM of test compound from a stock solution in DMSO (final DMSO concentration was 0.1%). At each specific time point, incubation medium was removed and cell monolayers were carefully washed two times with ice-cold PBS. Following the last wash, all PBS was carefully removed and 1.0 mL of extraction solution (ice-cold 70% methanol/30% water) added. Cells were scraped off and suspended in the extraction solution, transferred to 2 mL polypropylene microfuge tubes and intracellular contents extracted overnight at −20° C.
After the overnight treatment the cellular extracts were prepared by centrifugation at 16,000×g for 10 min to remove cellular debris. The remaining sample was then dried using a refrigerated centrivap concentrator. Dry extracts were reconstituted in 1000 μL of HPLC-grade water and centrifuged at 16,000×g for 10 min. Aliquots (100 μL each) of the supernatant were transferred into a 96 well plate and internal standard (4 ng/mL final concentration) was added as the internal standard (IS) for LC-MS/MS analysis.
The incubation time points were 6, 24 and 48 hours for human hepatocytes and 1, 4, 8, 12 and 24 hours for mouse hepatocytes.

[1] = Plasma and liver pharmacokinetics following a single oral dose in mice (Example 6); format: in vivo; settings: mouse, plasma, CD-1 mice, oral 25 mg/kg, 1a average of N = 2
Experimental: For each compound, a single oral dose at 25 mg/kg in PEG 200 (dose volume 5 mL/kg) was administered to [CD-1] mice. Untreated animals were used for the collection of control liver. Terminal liver and plasma samples were collected from three animals per time point at 4, 12 and 24 hours post dose and additionally at 1 hour post dose in one occasion of Compound 1 (see Example 5). Liver specimens were collected from all animals immediately after the incision. Freezing forceps stored in liquid nitrogen were used to freeze the liver before excision.
Plasma samples were analyzed for the prodrug and 2′-methylguanosine (2′-MeG) or relevant nucleoside by LC-MS/MS. For protein precipitation and extraction, each plasma sample (50 μL) was treated with 500 μL of 0.2% formic acid in acetonitrile and 20 μL of an appropriate internal standard working solution. After vortexing and centrifugation, 500 μL of the sample extracts were transferred to a new plate, dried under N2 at ˜28° C. and reconstituted with 75 μL of 0.2% FA in water. The extracts were chromatographed on an Aquasil C18 column using a gradient system of 0.2% formic acid in water and acetonitrile. The analytes were detected and quantified by tandem mass spectrometry in positive ion mode on an MDS Sciex API5000 or an API4000 equipped with a Turbo Ionspray® interface. The calibration range was 0.500 (LLOQ) to 200 ng/mL in mouse plasma. The corresponding range for molar units is 1.68 to 673 pmol/mL.
Liver samples were analyzed for the active species 2′-methylguanosine triphosphate (2′-MeGTP) or relevant nucleoside triphosphate by LC-MS/MS. The triphosphate levels were assayed by homogenizing (on ice) a known weight of mouse liver with 4× volume of 0.95 M trichloroacetic acid (TCA). Appropriate internal standard solution was added to the homogenate followed by neutralization with 20% ammonium hydroxide solution and addition of 500 μL 1% formic acid. The tissue samples were extracted by weak anion exchange solid phase extraction (SPE). Post extraction, the eluates were evaporated under nitrogen, followed by reconstitution before injection onto the LC-MS/MS system. The samples were chromatographed on a Luna NH2 column using a gradient system of ammonium acetate (1 mM to 20 mM and pH 8.0 to pH 10.0) in water and acetonitrile (70:30). The analyte was detected and quantified by tandem mass spectrometry in positive ion mode on an API4000 equipped with a Turbo Ionspray® interface. The calibration range was 10 to 10000 pmol/mL in mouse liver homogenate (50 to 50000 pmol/g of mouse liver).

[2] = Stability in fresh human whole blood; format: in vitro ADME; settings: 0.5 μM, percent unchanged
Experimental: Stability of test compounds were determined in fresh human whole blood with K2EDTA as the anticoagulant (stored refrigerated at 2-8° C. and used within 7 days of receipt). The experiment was conducted with three replicates for each time point. Whole blood, pre-incubated at 37° C. for 10-15 minutes, was fortified with a solution of test compound for a final concentration of 0.5 μM and mixed for 30 sec. At intervals (0, 0.5, 1 and 2 hr), three […] aliquots were combined with 200 μL (each) of an ice-cold solution of the internal standard (carbutamide 500 ng/mL in acetonitrile). The samples were vortexed for 30 sec and then centrifuged at 16,100 g for 5 min. The supernatant was analyzed by LC-MS/MS. The MS peak area ratio of the test compound versus the internal standard was calculated and percent unchanged test compound was calculated for each time point using this ratio.

[3] = Stability in liver and intestinal subcellular fractions (microsomes and S9); format: in vitro ADME, human; settings: 10 μM, NADPH, 60 min, percent unchanged
Experimental: Stability of test compounds were determined in subcellular fractions (microsomes and S9) of human liver and intestine in duplicate for each matrix. Pooled liver and intestinal microsomal, intestinal and liver S9 proteins (1.0 mg/mL), suspended in incubation buffer (100 mM potassium phosphate, pH […], and 0.1 mM EDTA), were preincubated for 5 min at 37° C. with 10 μM of a test compound from a 10 mM stock solution in DMSO (final DMSO concentration was 0.1%); the reaction was initiated by the addition of NADPH (3 mM final concentration). At specific times (0 and 60 min), 0.1 mL samples were taken and the reaction terminated by the addition of 4 volumes of stop solution (acetonitrile with 500 ng/mL carbutamide as an internal standard). The samples were vortexed for 30 sec and then centrifuged at 16,000 g for 10 min. 100 μL of supernatants were transferred to 96 deep-well plates preloaded with 100 μL distilled water and analyzed after mixing by LC-MS/MS. The MS peak area ratio of the test compound versus the internal standard was calculated and percent unchanged test compound over 60 minutes was calculated using this ratio.

With `CCOc1nc(N)nc2c1ncn2[C@@H]1O[C@@H]2COP(=O)(OC(C)C)O[C@H]2[C@@]1(C)O` (single isomer, unassigned) [Compound 1a] the “FHH TP (6 hr)” value (fresh human hepatocytes) was “BLD^a”, the AUC(0-t) ([1]; normalized to 1 μmol/kg dose, read-out: Plasma prodrug AUC0-24) was 0.34 µM·h and the Cmax ([1]; normalized to 1 μmol/kg dose, read-out: Plasma prodrug Cmax) was 43 nM. The Tmax ([1]; read-out: Plasma prodrug Tmax) was 3 h, the “Stability WB_Human (37° C.; 2 hr)” value [2] was 101% and the “Stability HIS9 (1 hr)” value ([3]; HIS9 1.0 mg/mL) was 106%. For the same compound, the “Stability HIM (1 hr)” value ([3]; human intestinal microsome 1.0 mg/mL) was 107%, the “Stability HLS9 (1 hr)” value ([3]; human liver S9 fraction 1.0 mg/mL) was 111% and the “Stability HLM (1 hr)” value ([3]; human liver microsome 1.0 mg/mL) was 100%.
